Calls of active or inactive are those of the source. No cut-off for these calls is given here.
How the values were obtained:
[1] = target: Mitogen-activated protein kinase 10 (Homo sapiens) (UniProt P53779); experiment: Inhibition of JNK3 (unknown origin) at 10 uM
[2] = target: Serine/threonine-protein kinase TBK1 (Homo sapiens) (UniProt Q9UHD2); experiment: Inhibition of TBK1 (unknown origin) at 10 uM
[3] = tested on: Mus musculus; experiment: Toxicity in male ICR mouse assessed as average body weight at 2000 mg/kg, po administered for 2 days measured 3 hrs post last dose (reference value: 20.3 +/- 0.4 g); type: organism-based; details: in vivo
[4] = target: MAP kinase-activated protein kinase 2 (Homo sapiens) (UniProt P49137); experiment: Inhibition of MAPKAPK2 (unknown origin) at 10 uM
Sequence of MAP kinase-activated protein kinase 2 (Homo sapiens) (P49137 whole entry, looked up): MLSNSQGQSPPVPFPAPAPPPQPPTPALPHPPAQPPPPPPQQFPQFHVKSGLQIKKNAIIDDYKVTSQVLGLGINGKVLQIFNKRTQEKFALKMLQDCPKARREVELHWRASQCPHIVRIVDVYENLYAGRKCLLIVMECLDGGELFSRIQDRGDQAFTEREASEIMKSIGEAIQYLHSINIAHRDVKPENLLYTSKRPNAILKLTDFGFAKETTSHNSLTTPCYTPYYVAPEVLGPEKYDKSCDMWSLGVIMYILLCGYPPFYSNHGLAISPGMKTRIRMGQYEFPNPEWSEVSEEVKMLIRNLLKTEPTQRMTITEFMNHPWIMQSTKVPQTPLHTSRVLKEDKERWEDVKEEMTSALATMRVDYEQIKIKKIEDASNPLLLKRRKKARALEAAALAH

[5] = target: MAP kinase-interacting serine/threonine-protein kinase 1 (Homo sapiens) (UniProt Q9BUB5); experiment: Inhibition of MNK1 (unknown origin) at 10 uM
[6] = tested on: Mus musculus; experiment: Toxicity in male ICR mouse assessed as average body weight at 2000 mg/kg, po administered for 7 days measured 3 hrs post last dose (reference value: 20.3 +/- 0.4 g); type: organism-based; details: in vivo
[7] = target: Tyrosine-protein kinase Lck (Homo sapiens) (UniProt P06239); experiment: Inhibition of LCK (unknown origin) at 10 uM
Sequence of Tyrosine-protein kinase Lck (Homo sapiens) (P06239 2-509 limits assumed): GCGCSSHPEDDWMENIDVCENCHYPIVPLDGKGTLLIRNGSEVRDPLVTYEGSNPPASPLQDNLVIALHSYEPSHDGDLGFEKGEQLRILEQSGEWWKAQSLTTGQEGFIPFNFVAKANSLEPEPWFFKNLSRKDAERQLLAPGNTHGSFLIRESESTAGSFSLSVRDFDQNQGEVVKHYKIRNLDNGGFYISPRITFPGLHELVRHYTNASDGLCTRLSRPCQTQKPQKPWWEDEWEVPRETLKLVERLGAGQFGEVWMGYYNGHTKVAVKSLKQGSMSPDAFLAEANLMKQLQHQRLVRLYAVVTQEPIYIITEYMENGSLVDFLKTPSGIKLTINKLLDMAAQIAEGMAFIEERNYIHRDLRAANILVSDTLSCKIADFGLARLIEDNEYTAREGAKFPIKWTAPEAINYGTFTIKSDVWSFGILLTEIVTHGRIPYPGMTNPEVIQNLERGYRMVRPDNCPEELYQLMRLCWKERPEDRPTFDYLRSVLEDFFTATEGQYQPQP

[8] = target: Ribosomal protein S6 kinase alpha-5 (Homo sapiens) (UniProt O75582); experiment: Inhibition of MSK1 (unknown origin) at 10 uM
Sequence of Ribosomal protein S6 kinase alpha-5 (Homo sapiens) (O75582 whole entry, looked up): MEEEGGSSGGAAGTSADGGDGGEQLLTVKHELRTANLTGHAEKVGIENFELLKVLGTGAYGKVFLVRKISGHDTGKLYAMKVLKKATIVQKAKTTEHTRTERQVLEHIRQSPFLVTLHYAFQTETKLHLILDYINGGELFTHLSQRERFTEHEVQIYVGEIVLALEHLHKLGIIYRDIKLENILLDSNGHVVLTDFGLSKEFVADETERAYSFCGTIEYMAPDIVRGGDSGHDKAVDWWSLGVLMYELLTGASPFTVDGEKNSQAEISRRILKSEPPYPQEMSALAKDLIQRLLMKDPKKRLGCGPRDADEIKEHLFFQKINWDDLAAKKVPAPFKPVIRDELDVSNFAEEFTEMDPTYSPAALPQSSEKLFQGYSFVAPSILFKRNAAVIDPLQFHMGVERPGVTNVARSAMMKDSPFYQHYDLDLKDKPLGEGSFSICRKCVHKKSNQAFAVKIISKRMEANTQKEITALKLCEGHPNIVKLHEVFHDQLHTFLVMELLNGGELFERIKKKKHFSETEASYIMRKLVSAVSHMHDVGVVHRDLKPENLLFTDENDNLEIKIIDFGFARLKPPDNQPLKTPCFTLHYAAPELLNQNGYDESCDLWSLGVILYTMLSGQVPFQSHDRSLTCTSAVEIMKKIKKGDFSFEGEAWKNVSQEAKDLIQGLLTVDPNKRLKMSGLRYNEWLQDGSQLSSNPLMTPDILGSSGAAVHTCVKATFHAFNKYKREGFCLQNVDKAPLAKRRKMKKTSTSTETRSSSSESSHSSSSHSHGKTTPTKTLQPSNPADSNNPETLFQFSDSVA

[9] = target: Mitogen-activated protein kinase 9 (Homo sapiens) (UniProt P45984); experiment: Inhibition of JNK2 (unknown origin) at 10 uM
[10] = target: Tyrosine-protein kinase Lyn (Homo sapiens) (UniProt P07948); experiment: Inhibition of LYN (unknown origin) at 10 uM
Sequence of Tyrosine-protein kinase Lyn (Homo sapiens) (P07948 2-512 limits assumed): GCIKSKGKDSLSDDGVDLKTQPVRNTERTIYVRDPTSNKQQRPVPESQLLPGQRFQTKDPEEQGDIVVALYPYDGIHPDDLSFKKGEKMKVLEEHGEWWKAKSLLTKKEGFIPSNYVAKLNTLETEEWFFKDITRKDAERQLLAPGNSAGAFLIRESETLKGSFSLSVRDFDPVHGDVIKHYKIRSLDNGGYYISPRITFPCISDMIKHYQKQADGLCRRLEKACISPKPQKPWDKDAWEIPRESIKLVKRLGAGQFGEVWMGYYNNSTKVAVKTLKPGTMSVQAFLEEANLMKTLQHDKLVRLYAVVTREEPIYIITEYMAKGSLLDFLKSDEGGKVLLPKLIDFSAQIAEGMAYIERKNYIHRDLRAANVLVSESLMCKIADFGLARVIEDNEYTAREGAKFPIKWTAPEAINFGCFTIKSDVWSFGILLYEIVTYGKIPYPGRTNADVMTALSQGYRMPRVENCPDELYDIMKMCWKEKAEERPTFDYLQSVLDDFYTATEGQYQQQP

[11] = tested on: Mus musculus; experiment: Toxicity in male ICR mouse assessed as average body weight at 2000 mg/kg, po administered on day 1 measured 3 hrs post dose (reference value: 20.3 +/- 0.4 g); type: organism-based; details: in vivo
[12] = target: MAP kinase-activated protein kinase 5 (Homo sapiens) (UniProt Q8IW41); experiment: Inhibition of MAPKAPK5 (unknown origin) at 10 uM
Sequence of MAP kinase-activated protein kinase 5 (Homo sapiens) (Q8IW41 whole entry): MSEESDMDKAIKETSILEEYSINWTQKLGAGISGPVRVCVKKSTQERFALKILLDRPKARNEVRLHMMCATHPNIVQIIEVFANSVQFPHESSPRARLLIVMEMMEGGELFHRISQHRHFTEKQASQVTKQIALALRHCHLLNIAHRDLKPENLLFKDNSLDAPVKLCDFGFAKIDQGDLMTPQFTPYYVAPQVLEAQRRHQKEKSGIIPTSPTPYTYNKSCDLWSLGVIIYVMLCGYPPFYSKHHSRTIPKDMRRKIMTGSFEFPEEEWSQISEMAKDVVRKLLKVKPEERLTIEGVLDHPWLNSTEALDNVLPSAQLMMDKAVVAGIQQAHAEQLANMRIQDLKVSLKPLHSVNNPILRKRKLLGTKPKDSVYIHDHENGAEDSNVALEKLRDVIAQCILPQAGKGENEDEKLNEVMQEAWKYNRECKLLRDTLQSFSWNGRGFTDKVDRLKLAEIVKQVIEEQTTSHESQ

[13] = AUC (0 to infinity) in Sprague-Dawley rat at 1 mg/kg, iv after 0.25 to 24 hrs; type: ADME, organism-based; design: dose 1 mg/kg, time infinity, route intravenous; details: in vivo
[14] = target: T1, Inhibitor of nuclear factor kappa-B kinase subunit beta (Homo sapiens) (UniProt O14920); experiment: Inhibition of IKKbeta (unknown origin) transfected in human HeLa cells assessed as inhibition of TPA-induced NF-kappaB activation at 10 uM pre-incubated with compound for 1 hr followed by TPA addition after 8 hrs by luciferase reporter gene assay; type: cell-based
T1 sequence (whole entry): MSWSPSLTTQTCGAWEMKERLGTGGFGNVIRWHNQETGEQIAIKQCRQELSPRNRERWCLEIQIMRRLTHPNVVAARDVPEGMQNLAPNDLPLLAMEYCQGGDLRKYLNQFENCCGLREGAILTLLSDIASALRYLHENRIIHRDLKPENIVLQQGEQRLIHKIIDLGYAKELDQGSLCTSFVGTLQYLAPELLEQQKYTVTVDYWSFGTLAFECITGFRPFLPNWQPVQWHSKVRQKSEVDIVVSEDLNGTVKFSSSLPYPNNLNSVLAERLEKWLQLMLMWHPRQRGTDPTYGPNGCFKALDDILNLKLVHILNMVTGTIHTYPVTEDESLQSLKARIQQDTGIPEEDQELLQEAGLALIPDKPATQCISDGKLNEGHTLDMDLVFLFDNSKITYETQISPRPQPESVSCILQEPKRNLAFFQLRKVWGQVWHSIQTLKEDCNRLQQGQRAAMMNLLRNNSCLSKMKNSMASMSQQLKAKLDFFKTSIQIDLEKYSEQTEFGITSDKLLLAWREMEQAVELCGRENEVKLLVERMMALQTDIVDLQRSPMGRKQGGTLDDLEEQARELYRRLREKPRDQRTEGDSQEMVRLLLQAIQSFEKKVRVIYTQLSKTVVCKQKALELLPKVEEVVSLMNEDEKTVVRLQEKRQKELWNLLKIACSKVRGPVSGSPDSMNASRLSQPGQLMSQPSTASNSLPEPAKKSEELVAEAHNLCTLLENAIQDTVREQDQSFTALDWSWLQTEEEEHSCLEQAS

[15] = target: T1, Inhibitor of nuclear factor kappa-B kinase subunit beta (Homo sapiens); experiment: Non-competitive inhibition of IKKbeta (unknown origin) using FAM-IkBalpha derived peptide as substrate at 0.5 to 1 uM incubated for 1 hr measured after 15 hrs by Lineweaver-Burk plot method in the presence of 0.625 to 10 uM ATP
[16] = tested on: Mus musculus; experiment: Toxicity in male ICR mouse assessed as average body weight at 2000 mg/kg, po administered for 10 days measured 3 hrs post last dose (reference value: 20.3 +/- 0.4 g); type: organism-based; details: in vivo
[17] = target: Casein kinase II subunit alpha (Homo sapiens) (UniProt P68400); experiment: Inhibition of CK2alpha (unknown origin) at 10 uM
Sequence of Casein kinase II subunit alpha (Homo sapiens) (P68400 whole entry, looked up): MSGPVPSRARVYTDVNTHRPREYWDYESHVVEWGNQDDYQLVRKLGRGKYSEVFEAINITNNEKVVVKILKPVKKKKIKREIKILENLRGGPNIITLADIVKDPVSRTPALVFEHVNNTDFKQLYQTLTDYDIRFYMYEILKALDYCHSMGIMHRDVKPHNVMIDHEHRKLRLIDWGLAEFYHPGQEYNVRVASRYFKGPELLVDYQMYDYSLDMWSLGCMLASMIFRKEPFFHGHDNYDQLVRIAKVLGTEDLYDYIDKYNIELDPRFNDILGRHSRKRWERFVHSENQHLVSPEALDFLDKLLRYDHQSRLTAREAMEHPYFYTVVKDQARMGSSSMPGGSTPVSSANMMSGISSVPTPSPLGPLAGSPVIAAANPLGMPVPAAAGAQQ

[18] = Half life in Sprague-Dawley rat at 1 mg/kg, iv after 0.25 to 24 hrs; type: ADME, organism-based; details: in vivo
[19] = target: Protein kinase C alpha type (Homo sapiens) (UniProt P17252); experiment: Inhibition of PKCalpha (unknown origin) at 10 uM
[20] = target: Inhibitor of nuclear factor kappa-B kinase subunit epsilon (Homo sapiens) (UniProt Q14164); experiment: Inhibition of IKKepsilon (unknown origin) at 10 uM
Sequence of Inhibitor of nuclear factor kappa-B kinase subunit epsilon (Homo sapiens) (Q14164 whole entry): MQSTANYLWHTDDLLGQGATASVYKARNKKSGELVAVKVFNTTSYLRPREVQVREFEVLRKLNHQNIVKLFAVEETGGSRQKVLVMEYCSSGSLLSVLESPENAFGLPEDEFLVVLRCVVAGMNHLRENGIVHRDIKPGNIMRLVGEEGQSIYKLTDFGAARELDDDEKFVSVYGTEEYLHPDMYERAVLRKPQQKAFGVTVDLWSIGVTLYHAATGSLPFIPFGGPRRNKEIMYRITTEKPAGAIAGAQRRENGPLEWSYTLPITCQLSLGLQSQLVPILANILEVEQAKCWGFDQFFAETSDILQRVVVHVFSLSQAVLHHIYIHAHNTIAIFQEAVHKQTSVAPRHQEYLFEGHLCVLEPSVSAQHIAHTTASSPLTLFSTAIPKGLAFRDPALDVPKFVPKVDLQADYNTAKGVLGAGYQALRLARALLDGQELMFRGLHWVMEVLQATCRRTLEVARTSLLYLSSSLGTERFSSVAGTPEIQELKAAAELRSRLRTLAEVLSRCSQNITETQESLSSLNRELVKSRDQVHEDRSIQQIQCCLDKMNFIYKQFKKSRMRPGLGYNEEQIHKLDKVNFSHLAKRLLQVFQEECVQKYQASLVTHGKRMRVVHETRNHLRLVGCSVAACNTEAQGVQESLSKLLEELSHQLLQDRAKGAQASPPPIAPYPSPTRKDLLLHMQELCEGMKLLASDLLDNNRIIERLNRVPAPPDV

Sequence of Mitogen-activated protein kinase 10 (Homo sapiens) (P53779 whole entry): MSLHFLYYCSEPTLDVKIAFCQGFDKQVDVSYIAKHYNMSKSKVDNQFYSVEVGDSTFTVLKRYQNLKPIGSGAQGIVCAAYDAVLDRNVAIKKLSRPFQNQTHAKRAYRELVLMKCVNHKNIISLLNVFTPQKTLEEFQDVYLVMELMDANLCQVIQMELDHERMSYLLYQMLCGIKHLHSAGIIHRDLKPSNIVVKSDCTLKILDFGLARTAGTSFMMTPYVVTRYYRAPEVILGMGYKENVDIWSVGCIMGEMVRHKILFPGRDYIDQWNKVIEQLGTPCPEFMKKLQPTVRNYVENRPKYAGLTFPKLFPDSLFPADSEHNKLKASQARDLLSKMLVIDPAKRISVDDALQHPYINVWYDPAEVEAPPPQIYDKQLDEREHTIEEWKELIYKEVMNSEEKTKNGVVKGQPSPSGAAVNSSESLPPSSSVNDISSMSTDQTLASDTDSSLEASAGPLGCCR

CN1CCN(CCCOc2ccc(N3C(=O)/C(=C/c4ccc(Oc5ccc(F)cc5)cc4)SC3=S)cc2)CC1
inhibition [1]: 0%
inhibition [2]: 0%
Activity [3]: 22.1 g
inhibition [4]: 42%
inhibition [5]: 0%
Activity [6]: 26.2 g
inhibition [7]: 0%
inhibition [8]: 27.1%
inhibition [9]: 0%
inhibition [10]: 27.8%
Activity [11]: 21.5 g
inhibition [12]: 5.2%
AUC(0-inf) [13]: 176 ng·h/mL
inhibition [14]: 84.8%
inhibition [15]: Active
Activity [16]: 27.4 g
inhibition [17]: 0%
half-life [18]: 5.5 h
inhibition [19]: 18.4%
inhibition [20]: 0%
